According to patent US8835467B2, “SIR2 regulation” (Albert Einstein College of Medicine of Yeshiva University, priority 2003, dated 2014):

Assays:
Yeast SIR2p = target: T1, Yeast SIR2p (Saccharomyces cerevisiae, UniProt P06700); assay: SIR2 deacetylation assay (p53 peptide, HPLC of ADPR and 3′-O-acetyl-ADPR); format: biochemical
T1 construct: made in house
Description: (§1) After 2 hours, aliquots of 10 μL removed at 0, 30, 60, 90 and 120 min. Each aliquot was combined with 50 μL 50 mM ammonium acetate pH 5.0 to quench and assayed by HPLC for deacetylation products and NAD^+. The chromatograms (260 nm) were obtained using 50 mM ammonium acetate pH 5.0 as eluant on a semi-preparative Waters C-18 column (2.0 mL/min flow rate). Peaks for ADPR and 3′-O-Acetyl-ADPR were quantified by integration. The peak for NAD^+ was collected and radiation counted.
(§2) Reactions were as above but base reactions contained 5 mM of pyrazinamide, isonicotinamide, thionicotinamide, or benzamide. Reactions were carried out (2 hours for AF2 and yeast enzymes and 3 hours for mouse enzyme) at 37° C. and quenched by addition of 80 μL 50 mM ammonium acetate pH 5.0. Product formation was quantified by HPLC. […] Rates were compared with controls lacking added base.

[1] = target: T2, Mouse SIR2 enzyme (SIR2α) (Mus musculus, UniProt Q923E4); assay: as above; format: biochemical
T2 construct: purchased Upstate Group
T2 sequence (Q923E4 1-737): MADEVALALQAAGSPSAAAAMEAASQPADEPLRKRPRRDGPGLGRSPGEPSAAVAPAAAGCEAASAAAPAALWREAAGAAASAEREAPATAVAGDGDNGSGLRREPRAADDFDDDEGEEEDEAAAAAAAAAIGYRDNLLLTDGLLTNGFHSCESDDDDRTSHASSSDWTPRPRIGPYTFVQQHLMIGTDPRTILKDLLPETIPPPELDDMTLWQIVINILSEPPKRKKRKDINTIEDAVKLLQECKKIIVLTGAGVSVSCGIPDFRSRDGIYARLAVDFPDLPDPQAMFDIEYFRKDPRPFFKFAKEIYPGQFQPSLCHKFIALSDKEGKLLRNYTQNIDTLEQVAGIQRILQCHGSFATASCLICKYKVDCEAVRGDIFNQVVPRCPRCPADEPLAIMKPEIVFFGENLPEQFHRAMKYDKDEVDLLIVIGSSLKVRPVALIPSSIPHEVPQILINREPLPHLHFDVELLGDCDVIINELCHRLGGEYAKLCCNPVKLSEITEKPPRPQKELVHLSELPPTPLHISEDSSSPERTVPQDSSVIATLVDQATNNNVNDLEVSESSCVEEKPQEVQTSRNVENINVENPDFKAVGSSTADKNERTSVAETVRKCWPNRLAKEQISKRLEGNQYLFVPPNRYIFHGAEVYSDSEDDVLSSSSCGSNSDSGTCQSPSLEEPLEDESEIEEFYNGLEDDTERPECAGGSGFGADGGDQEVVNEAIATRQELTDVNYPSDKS
Description: as §1, §2

[2] = test system: Sir2-dependent transcriptional silencing at the rDNA locus; assay: rDNA locus URA3 silencing on FOA-containing media; format: cell-based, yeast; conditions: RDN1::URA3 strain; 25 mM isonicotinamide
Description: Ten-fold serial dilutions of yeast strains were spotted onto control (YPD) or selective media (vanLeeuwen and Gottschling, 2002). The photographs were taken after 2 to 3 days incubation. […] Isogenic strains UCC4562 (DOT1) and UCC4554 (dot1Δ) (Singer et al., 1998) are shown in each panel (top and bottom rows, respectively). […] The phenotype of strain CCFY10028 (top row) is compared to an isogenic sir2 derivative (bottom row). The sir2 deletion strain was generated by PCR-mediated gene disruption using a Nat-MX selectable marker (Tong et al., 2004).
Sir2 also localizes to the nucleolus where it functions to propagate a specialized chromatin structure on the rDNA (Rusche at al., 2003). […] Thus, isonicotinamide increases the activity of Sir2 in vivo at all three types of silent loci.

Yeast Sir2 = Yeast Sir2 (Saccharomyces cerevisiae, UniProt P06700); assay: Sir2 catalyzed deacetylation of H4 N-terminal peptide; format: biochemical
Yeast Sir2, sequence (P06700 whole entry): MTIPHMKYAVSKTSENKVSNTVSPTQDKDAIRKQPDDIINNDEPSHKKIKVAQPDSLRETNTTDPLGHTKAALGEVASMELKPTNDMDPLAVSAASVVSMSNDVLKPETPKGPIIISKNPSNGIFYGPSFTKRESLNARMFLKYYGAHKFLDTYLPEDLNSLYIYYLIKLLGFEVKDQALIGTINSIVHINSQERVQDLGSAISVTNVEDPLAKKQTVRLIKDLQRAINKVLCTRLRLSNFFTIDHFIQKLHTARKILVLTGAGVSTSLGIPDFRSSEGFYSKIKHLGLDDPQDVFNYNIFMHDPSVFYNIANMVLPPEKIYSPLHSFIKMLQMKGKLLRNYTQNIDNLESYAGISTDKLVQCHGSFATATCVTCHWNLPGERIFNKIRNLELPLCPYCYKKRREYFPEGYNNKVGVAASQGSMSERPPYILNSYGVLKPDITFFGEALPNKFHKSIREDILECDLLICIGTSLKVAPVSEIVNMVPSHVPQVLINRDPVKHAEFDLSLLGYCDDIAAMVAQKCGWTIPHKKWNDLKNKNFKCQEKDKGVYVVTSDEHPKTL
Description: Measurements were performed by methods described in Sauve and Schramm (2003) with the H4N-terminal peptide (AGG(AcK)GG(AcK)GMG(AcK)VGA(AcK)RHSC) (Imai et al., 2000) as substrate.

T1 sequence (P06700 whole entry): as above

Work on `NC(=O)c1ccncc1` [Isonicotinamide] yielded an inhibition at 5000 µM (Yeast SIR2p) of 0%, an inhibition at 42000 µM (Yeast SIR2p; pH 7.6) of 5% and an inhibition at 5000 µM [1] of 18%. The “silencing at the rDNA locus (resistance to FOA)” value [2] was “increases silencing at the rDNA locus”, the “increase of deacetylation activity” value (Yeast Sir2; 125 μM [carbonyl-14C]nicotinamide, increasing isonicotinamide) was at most 45% and the “effect on rates of deacetylation” value (Yeast Sir2; isonicotinamide to 100 mM, absence of nicotinamide) was “do not substantially affect rates of deacetylation”.
